Data taken from patent publication US20070280924A1, “Pharmaceutical Preparations For And Treatment Of Ocular Surface and Other Disorders” (priority 2004, published 2007).

Tests used:
[1] = for comparison; cited from earlier work
[2] = test system: human corneal epithelial cell lines (HCE-T and CEPI-17-CI.4) and human conjunctival epithelial cells
Procedure: Hypromellose, Carbopol or sodium hyaluronate were used to supplement an ocular surface medium at concentrations ranging from 0.0001% to 0.4%. The pH and osmolarity of all of the resultant formulations were controlled and adjusted to be within physiological range. The biophysical properties, i.e. viscosity and surface tension, were determined with a rheometer and an electronic manometer. Two human corneal epithelial cell lines (HCE-T and CEPI-17-CI.4) and two human conjunctival epithelial cells were used to investigate cell proliferation, viability and migration in response to the formulations by means of a luminescence based ATP-assay, a calcein AM/EthD-1 assay and a colony dispersion assay.

## O [water]
[1]
  Surface tension: about 70 mN/m

## hypromellose
[2]
  Toxicity: low toxicity
